The target of this assay is Carbonic anhydrase 2 (Homo sapiens, UniProt P00918). The assay can be described thus: Kinetic constant for binding human carbonic anhydrase II ([…]). The conditions noted are these: read-out: kon (M-1-s-1).

For the compound `NS(=O)(=O)c1ccc(C(=O)NCC(=O)O)cc1` [(4-Sulfamoyl-benzoylamino)-acetic acid], the kon was found to be 3.61e+07 M⁻¹ s⁻¹.
